# Test results: PMC1794076, “Bioinorganic Chemistry in Thyroid Gland: Effect of Antithyroid Drugs on Peroxidase-Catalyzed Oxidation and Iodination Reactions” (Bioinorganic Chemistry and Applications, 2006)
# Where two headings read alike, the source gives them in different places.
# What was measured:
# [1] = tested on: lactoperoxidase (LPO); set-up: method as in PMID 16248663; conditions: cited from earlier work
# [2] = target: lactoperoxidase (LPO); set-up: method as in PMID 16855736; conditions: cited from earlier work
# [3] = set-up: method as in earlier work; conditions: cited from earlier work
# [4] = Glutathione peroxidase (GPx)-like reduction of H2O2 in the presence of thiols (GSH); assay type: biochemical; conditions: catalytic reduction of H2O2 with thiols such as GSH
# From the text: Doerge and others have shown that mammalian peroxidases including LPO may activate the antithyroid drugs through S-oxygenation to produce the corresponding sulfoxides or sulfinic acids. They have also shown that the suicide inactivation of LPO and TPO by MMI proceeds through the S-oxygenation of the thione moiety to form a reactive sulfinic acid, which binds covalently to the prosthetic heme and irreversibly blocks enzyme activity. Given the higher reactivity of selenium compounds as compared with the sulfur derivatives toward oxidation, it is possible that the facile oxidation of the selenium compounds may lead to an efficient inhibition of LPO activity. […] The LPO activity was measured several times by increasing the time for the reaction of the test compounds with H2O2. Remarkably, MSeI (2) inhibited the enzyme within few seconds even at lower concentrations, which can be ascribed to the facile oxidation of the reactive selenolate group in 2 (MSeI) by H2O2 or by the oxidized enzyme. […] The initial rates (v0) derived from various concentrations of H2O2 were plotted against the concentration of H2O2. […] The reduction of H2O2 by 2 may become more efficient in the presence of suitable thiols such as GSH because this process may constitute a redox cycle involving a catalytic reduction of H2O2 (glutathione peroxidase (GPx) activity). […]
# [5] = set-up: method as in PMID 14995183, PMID 16248663; conditions: oxidizes in air to the corresponding diselenide; cited from earlier work
structure (smiles),measurement,setting,value
"Cn1cc[nH]c1=S [MMI, methimazole]",Recovery of LPO activity at lower compound and higher H2O2 concentration,"[1]; 10 μM compound, 230 μM H2O2",could not be recovered
same,LPO activity in the presence of compound,"[1]; 40 μM compound, ABTS oxidation, Figure 3",completely inhibited
same,Recovery of LPO activity by increasing H2O2 concentration,"[1]; 40 μM compound, initial rates vs H2O2 concentration, LPO 6.5 nM, Figure 3",could not be recovered
same,IC50,"[1]; LPO-catalyzed oxidation of ABTS with H2O2, concentration causing 50% inhibition, at least three independent experiments",7 ± 1.1 µM
same,IC50,"[2]; HPLC assay, KI, L-tyrosine, H2O2, LPO, fixed H2O2 concentration, read-out: IC50, inhibition of LPO-catalyzed iodination of L-tyrosine",5.2 µM
same,hydrogen-bond (hard) basicity pk HB value,[3],2.11
Cn1cc[nH]c1=[Se] [MSeI],GPx activity (in words),[4],high
same,Stability of the zwitterionic form in air,[5],unstable
"CCCc1cc(=O)[nH]c(=S)[nH]1 [PTU, 6-n-propyl-2-thiouracil]",hydrogen-bond (hard) basicity pk HB value,[3],~1.32
Cn1ccnc1[Se][Se]c1nccn1C [compound 8],Inhibition of LPO-catalyzed oxidation (in words),[1]; identical experimental conditions as for the IC50 determination,does not show any noticeable inhibition
same,Inhibition of LPO-catalyzed iodination (in words),[2]; identical conditions as the IC50 determination,did not show any noticeable inhibition
